Laboratory results as given in patent US9868738B2, “Diazine-fused amidines as BACE inhibitors, compositions, and their use” (Merck Sharp & Dohme Corp., priority 2014, dated 2018).

Assays:
[1] = molecular target: soluble human BACE1 catalytic domain (Homo sapiens (Human), UniProt P56817); assay: BACE-1 Ki Assay (BACE-1 HTRF FRET Assay); type: biochemical; conditions: Ki calculated from IC50 using the Cheng-Prusoff equation; QSY7-APPswe-Eu substrate 200 nM, pH 5.0
Protocol: In another embodiment, the compounds of the invention comprise the example compounds shown in the table below, or a tautomer thereof, or a pharmaceutically acceptable salt of said compound or said tautomer. Examples 2 to 42 were prepared using the method similar to Ex. 1. Example 44 to 51 were synthesized using the method similar to Ex. 43. BACE-1 values reported in this table were measured using BACE-1 Ki Assay (BACE-1 HTRF FRET Assay).
• Reagents: Na^+-Acetate pH 5.0; 1% Brij-35; Glycerol; Dimethyl Sulfoxide (DMSO); Recombinant human soluble BACE1 catalytic domain (>95% pure); APP Swedish mutant peptide substrate (QSY7-APP^swe-Eu): QSY7-EISEVNLDAEFC-Europium-amide.
A homogeneous time-resolved FRET assay can be used to determine IC50 values for inhibitors of the soluble human BACE1 catalytic domain. This assay monitors the increase of 620 nm fluorescence that resulted from BACE1 cleavage of an APPswedish APP^swe mutant peptide FRET substrate (QSY7-EISEVNLDAEFC-Europium-amide). This substrate contains an N-terminal QSY7 moiety that serves as a quencher of the C-terminal Europium fluorophore (620 nm Em). In the absence of enzyme activity, 620 nm fluorescence is low in the assay and increased linearly over 3 hours in the presence of uninhibited BACE1 enzyme. Inhibition of BACE1 cleavage of the QSY7-APP^swe-Eu substrate by inhibitors is manifested as a suppression of 620 nm fluorescence.
Varying concentrations of inhibitors at 3× the final desired concentration in a volume of 10 ul are preincubated with purified human BACE1 catalytic domain (3 nM in 10 μl) for 30 minutes at 30° C. in reaction buffer containing 20 mM Na-Acetate pH 5.0, 10% glycerol, 0.1% Brij-35 and 7.5% DSMO. Reactions are initiated by addition of 10 μl of 600 nM QSY7-APP^swe-Eu substrate (200 nM final) to give a final reaction volume of 30 μl in a 384 well Nunc HTRF plate. The reactions are incubated at 30° C. for 1.5 hours. The 620 nm fluorescence is then read on a Rubystar HTRF plate reader (BMG Labtechnologies) using a 50 millisecond delay followed by a 400 millisecond acquisition time window. Inhibitor IC50 values are derived from non-linear regression analysis of concentration response curves. Ki values are then calculated from IC50 values using the Cheng-Prusoff equation using a previously determined […] of 8 μM for the QSY7-APP^swe-Eu substrate at BACE1.

[2] = molecular target: purified human autoBACE-2 (Homo sapiens (Human), UniProt Q9Y5Z0); assay: BACE-2 Assay (BACE-HTRF assay); type: biochemical; conditions: Ki calculated from IC50 using the Cheng-Prusoff equation; QSY7-EISEVNLDAEFC-Eu-amide substrate 200 nM, pH 5.0
purified human autoBACE-2, sequence (Q9Y5Z0 63-473 limits assumed): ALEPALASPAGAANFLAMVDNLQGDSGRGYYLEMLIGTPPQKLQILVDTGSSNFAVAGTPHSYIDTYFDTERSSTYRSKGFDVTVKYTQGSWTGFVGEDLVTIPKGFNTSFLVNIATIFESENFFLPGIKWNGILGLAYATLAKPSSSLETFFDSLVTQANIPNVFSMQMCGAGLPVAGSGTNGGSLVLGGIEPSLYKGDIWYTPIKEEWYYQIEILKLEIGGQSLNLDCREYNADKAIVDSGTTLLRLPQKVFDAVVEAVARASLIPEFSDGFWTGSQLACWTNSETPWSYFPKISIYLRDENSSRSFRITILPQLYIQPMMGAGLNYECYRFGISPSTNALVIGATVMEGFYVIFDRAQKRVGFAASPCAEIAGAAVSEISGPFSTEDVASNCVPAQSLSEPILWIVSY
Protocol: Inhibitor IC50s at purified human autoBACE-2 are determined in a time-resolved endpoint proteolysis assay that measures hydrolysis of the QSY7-EISEVNLDAEFC-Eu-amide FRET peptide substrate (BACE-HTRF assay). BACE-mediated hydrolysis of this peptide results in an increase in relative fluorescence (RFU) at 620 nm after excitation with 320 nm light. Inhibitor compounds, prepared at 3× the desired final concentration in 1×BACE assay buffer (20 mM sodium acetate pH 5.0, 10% glycerol, 0.1% Brij-35) supplemented with 7.5% DMSO are pre-incubated with an equal volume of autoBACE-2 enzyme diluted in 1×BACE assay buffer (final enzyme concentration 1 nM) in black 384-well NUNC plates for 30 minutes at 30° C. […] DMSO is present at […] final concentration in the assay. Following laser excitation of sample wells at 320 nm, the fluorescence signal at 620 nm is collected for 400 ms following a 50 μs delay on a RUBYstar HTRF plate reader (BMG Labtechnologies). Raw RFU data is normalized to maximum (1.0 nM BACE/DMSO) and minimum (no enzyme/DMSO) RFU values. IC50s are determined by nonlinear regression analysis (sigmoidal dose response, variable slope) of percent inhibition data with minimum and maximum values set to 0 and 100 percent respectively. Similar IC50s are obtained when using raw RFU data. The Ki values are calculated from the IC50 using the Cheng-Prusoff equation.

soluble human BACE1 catalytic domain, sequence (P56817 75-416): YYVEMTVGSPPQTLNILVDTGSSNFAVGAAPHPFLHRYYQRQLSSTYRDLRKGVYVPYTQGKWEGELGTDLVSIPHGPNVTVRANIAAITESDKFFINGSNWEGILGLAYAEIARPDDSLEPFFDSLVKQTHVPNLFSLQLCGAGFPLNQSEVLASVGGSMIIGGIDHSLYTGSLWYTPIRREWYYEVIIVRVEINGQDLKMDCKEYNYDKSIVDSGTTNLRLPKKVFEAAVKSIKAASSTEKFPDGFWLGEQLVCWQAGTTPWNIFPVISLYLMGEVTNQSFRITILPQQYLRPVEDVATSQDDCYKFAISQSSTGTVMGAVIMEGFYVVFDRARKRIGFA

SMILES | Ki [1] | Ki [2]
C[C@@]1(c2sc(-c3cccc(-c4nnco4)c3)cc2Cl)Cc2ncncc2C(=N)N1 [Example 15, (7S)-7-{3-chloro-5-[3-(1,3,4-oxadiazol-2-yl)phenyl]thiophen-2-yl}-7-methyl-7,8-dihydropyrido[4,3-d]pyrimidin-5(6H)-imine] | 11.1 nM | 37.3 nM
C[C@@]1(c2cc(-c3cncc(C#N)c3)cs2)Cc2nc(C3CC3)ncc2C(=N)N1 [Example 35, 5-{5-[(7S)-2-cyclopropyl-5-imino-7-methyl-5,6,7,8-tetrahydropyrido[4,3-d]pyrimidin-7-yl]thiophen-3-yl}pyridine-3-carbonitrile] | 224 nM | 142 nM
C[C@]1(c2sc(-c3cccc(-c4nnco4)c3)cc2Cl)NC(=N)c2cncnc2C1(F)F [Example 20, (7S)-7-{3-chloro-5-[3-(1,3,4-oxadiazol-2-yl)phenyl]thiophen-2-yl}-8,8-difluoro-7-methyl-7,8-dihydropyrido[4,3-d]pyrimidin-5(6H)-imine] | 33.3 nM | 118 nM
C[C@@]1(c2sc(-c3cccc(C#N)c3)cc2Cl)Cc2ncncc2C(=N)N1 [Example 13, 3-{4-chloro-5-[(7S)-5-imino-7-methyl-5,6,7,8-tetrahydropyrido[4,3-d]pyrimidin-7-yl]thiophen-2-yl}benzonitrile] | 35.2 nM | 15.1 nM
C[C@@]1(c2sc(-c3cc(F)cc(-c4nnco4)c3)cc2Cl)Cc2ncncc2C(=N)N1 [Example 17, (7S)-7-{3-chloro-5-[3-fluoro-5-(1,3,4-oxadiazol-2-yl)phenyl]thiophen-2-yl}-7-methyl-7,8-dihydropyrido[4,3-d]pyrimidin-5(6H)-imine] | 16.5 nM | 21.6 nM
C[C@@]1(c2cc(-c3cccc(-c4nnco4)c3)cs2)Cc2nc(C3CC3)ncc2C(=N)N1 [Example 34, (7S)-2-cyclopropyl-7-methyl-7-{4-[3-(1,3,4-oxadiazol-2-yl)phenyl]thiophen-2-yl}-7,8-dihydropyrido[4,3-d]pyrimidin-5(6H)-imine] | 85 nM | 215 nM
C[C@]1(c2sc(-c3cccc(C#N)c3)cc2Cl)NC(=N)c2cncnc2C1(F)F [Example 19, 3-{4-chloro-5-[(7S)-8,8-difluoro-5-imino-7-methyl-5,6,7,8-tetrahydropyrido[4,3-d]pyrimidin-7-yl]thiophen-2-yl}benzonitrile] | 246 nM | 128 nM
C[C@@]1(c2sc(-c3cncc(C#N)c3)cc2Cl)Cc2ncncc2C(=N)N1 [Example 14, 5-{4-chloro-5-[(7S)-5-imino-7-methyl-5,6,7,8-tetrahydropyrido[4,3-d]pyrimidin-7-yl]thiophen-2-yl}pyridine-3-carbonitrile] | 75.2 nM | 31.6 nM
C[C@@]1(c2cc(-c3cccc(C#N)c3)cs2)Cc2nc(C(F)(F)F)ncc2C(=N)N1 [Example 40, 3-{5-[(7S)-5-imino-7-methyl-2-(trifluoromethyl)-5,6,7,8-tetrahydropyrido[4,3-d]pyrimidin-7-yl]thiophen-3-yl}benzonitrile] | 58.2 nM | 23.1 nM
C[C@@]1(c2cc(-c3cccc(C(F)(F)F)c3)ccc2F)Cc2ncncc2C(=N)N1 [Example 6, (7S)-7-[4-fluoro-3′-(trifluoromethyl)biphenyl-3-yl]-7-methyl-7,8-dihydropyrido[4,3-d]pyrimidin-5(6H)-imine] | 3040 nM | 549 nM
C[C@@]1(c2sc(-c3cccc(C#N)c3)cc2Cl)Cc2nc(C3CC3)ncc2C(=N)N1 [Example 36, 3-{4-chloro-5-[(7S)-2-cyclopropyl-5-imino-7-methyl-5,6,7,8-tetrahydropyrido[4,3-d]pyrimidin-7-yl]thiophen-2-yl}benzonitrile] | 48.9 nM | 21.5 nM
Cc1ncc2c(n1)C[C@@](C)(c1cc(-c3cccc(C#N)c3)cs1)NC2=N [Example 23, 3-{5-[(7S)-5-imino-2,7-dimethyl-5,6,7,8-tetrahydropyrido[4,3-d]pyrimidin-7-yl]thiophen-3-yl}benzonitrile] | 151 nM | 87.9 nM

Second part, the compound after the results:

Ki [1] | Ki [2] | SMILES
199 nM | 53.5 nM | COc1cccc(-c2ccc(F)c([C@]3(C)Cc4ncncc4C(=N)N3)c2)c1 [Example 5, (7S)-7-(4-fluoro-3′-methoxybiphenyl-3-yl)-7-methyl-7,8-dihydro-pyrido[4,3-d]pyrimidin-5(6H)-imine]
827 nM | 259 nM | C[C@@]1(c2cc(-c3cccc(C#N)c3)ccc2F)Cc2ncncc2C(=N)N1 [Example 11, 4′-fluoro-3′-[(7S)-5-imino-7-methyl-5,6,7,8-tetrahydropyrido[4,3-d]pyrimidin-7-yl]biphenyl-3-carbonitrile]
771 nM | 3460 nM | C[C@@]1(c2cc(-c3cncnc3)ccc2F)Cc2ncncc2C(=N)N1 [Example 7, (7S)-7-(2-fluoro-5-pyrimidin-5-ylphenyl)-7-methyl-7,8-dihydro-pyrido[4,3-d]pyrimidin-5(6H)-imine]
7.1 nM | 10.9 nM | Cc1ncc2c(n1)C[C@](c1cc(NC(=O)c3ccc(C#N)cn3)ccc1F)(C(F)F)NC2=N [Example 50, 5-cyano-N-{3-[(7S)-7-(difluoromethyl)-5-imino-2-methyl-5,6,7,8-tetrahydropyrido[4,3-d]pyrimidin-7-yl]-4-fluorophenyl}pyridine-2-carboxamide]
18.1 nM | 48.3 nM | Cc1ncc2c(n1)C[C@@](C)(c1cc(NC(=O)c3ccc(C(F)(F)F)cn3)ccc1F)NC2=N [Example 46, N-{4-fluoro-3-[(7S)-5-imino-2,7-dimethyl-5,6,7,8-tetrahydropyrido[4,3-d]pyrimidin-7-yl]phenyl}-5-(trifluoromethyl)pyridine-2-carboxamide]
746 nM | 1180 nM | C[C@@]1(c2cc(-c3cccnc3)ccc2F)Cc2ncncc2C(=N)N1 [Example 10, (7S)-7-(2-fluoro-5-pyridin-3-ylphenyl)-7-methyl-7,8-dihydropyrido[4,3-d]pyrimidin-5(6H)-imine]
9.4 nM | 3 nM | C[C@@]1(c2cc(NC(=O)c3ccc(F)cn3)ccc2F)Cc2ncncc2C(=N)N1 [Example 43, 5-fluoro-N-{4-fluoro-3-[(7S)-5-imino-7-methyl-5,6,7,8-tetrahydropyrido[4,3-d]pyrimidin-7-yl]phenyl}pyridine-2-carboxamide]
15.4 nM | 15.3 nM | COc1ccc(C(=O)Nc2ccc(F)c([C@]3(C)Cc4nc(C)ncc4C(=N)N3)c2)nc1 [Example 47, N-{4-fluoro-3-[(7S)-5-imino-2,7-dimethyl-5,6,7,8-tetrahydropyrido[4,3-d]pyrimidin-7-yl]phenyl}-5-methoxypyridine-2-carboxamide]
62.7 nM | 207 nM | C[C@@]1(c2cc(NC(=O)c3ccc(C#N)cn3)ccc2F)Cc2nccnc2C(=N)N1 [Example 51, 5-cyano-N-{4-fluoro-3-[(7S)-5-imino-7-methyl-5,6,7,8-tetrahydropyrido[3,4-b]pyrazin-7-yl]phenyl}pyridine-2-carboxamide]
225 nM | 87.8 nM | COc1cncc(-c2ccc(F)c([C@]3(C)Cc4ncncc4C(=N)N3)c2)c1 [Example 8, (7S)-7-[2-fluoro-5-(5-methoxypyridin-3-yl)phenyl]-7-methyl-7,8-dihydropyrido[4,3-d]pyrimidin-5(6H)-imine]
